Results on 15 compounds are retold here after publication PMC12298624, “Anti-Infective Properties, Cytotoxicity, and In Silico ADME Parameters of Novel 4′-(Piperazin-1-yl)benzanilides” (Pharmaceuticals, 2025).

Like-named read-outs stand apart in the source and are kept apart here. Bounds are passed on as bounds.

Series [1] in a line: Resazurin-based in vitro cytotoxicity with HepG2 cells. To be noted: HepG2 cells; human hepatocarcinoma cells, 48 h. It is filed as cell-based, human. As to the method:
The HepG2 cells were washed with DPBS (Dulbecco’s PBS without calcium and magnesium, Gibco, Cat #21600-044) and trypsinized with trypsin solution in DPBS. Trypsinization was stopped by adding culture medium, and after being stained with Trypan Blue (SORS Ukraine) cells were counted using a counting chamber (Hausser Scientific, Cat #3500). The cell suspension was placed in a falcon tube containing plating medium DMEM/High glucose with 1% fetal bovine serum, 100 units/mL penicillin, and 100 µg/mL streptomycin. Cells at a density of 250,000 cells/mL were seeded in sterile 384-well plates (Greiner Bio-One, Cat #781091) in a volume of […] and incubated at 37 °C and 5% CO2. Serial dilutions of ten 3-fold dilution steps of test and reference compounds covering a range from 100.0 to 0.005 µM were added to the wells, followed by incubation at 37 °C and 5% CO2 for 48 h. Then, resazurin (50 µM final concentration) was added and plates were incubated for another 3 h. The plates were read with a SpectraMax microplate reader (Molecular Devices Cooperation, Sunnyvale, CA, USA)) using an extinction wavelength of 555 nm and an emission wavelength of 570 nm. IC50 values were calculated using GraphPad Prism 9.0 charting software. Doxorubicin (Sigma Aldrich D1515) was used as control.
For orientation: Resazurin is reduced to fluorescent resorufin, in cell work by metabolically active cells.

A short description of series [2]: Parallel artificial membrane permeability assay (PAMPA). The following applies: for Papp at 5 h, 200 µM: PAMPA, pH 7.4, Pe, PBS pH 7.4, 200 µM, room temperature; for Pe: PAMPA standards. As to the method: With the high-throughput PAMPA the newly synthesized compounds were tested for their passive permeability through cell membranes without the influence of efflux pumps or transporter proteins. The assay was performed using a Corning® Gentest^TM Precoated PAMPA Plate System (Corning, Glendale, AZ, USA) with 96-well polystyrene plates. The bottom of the acceptor plate consists of a porous membrane, whereby the pores are lined with a lipid–oil–lipid triple layer. Stock solutions of each test compound at 10 mM were prepared in DMSO or methanol and diluted with phosphate-buffered saline (PBS at a pH of 7.4) to a final concentration of 200 µM. […] The donor plate (bottom plate) was filled with the compound solutions, whereby all compounds were tested in quadruplicates. Each well of the acceptor plate (top plate) was filled with PBS buffer. Donor and acceptor plates were combined and incubated at room temperature for 5 h. After that, the plates were separated and 150 µL of each well of both plates were transferred to 96-well UV plates (Greiner Bio-One). Absorption at different wavelengths covering a range from 200 to 300 nm was measured using a SpectraMax M3 UV plate reader. […] The plates were analyzed at the wavelength where the R2 value of the calibration curve was higher than 0.99 [47].
Recovery of compounds from donor and acceptor wells (mass retention) was calculated as shown in the equation below. Data were only accepted when recovery exceeded 70%. The equation is as follows:(3) R=1−[cDt×VD+cAt×VA]/(c0×VD) where

Series [3] can be described thus: Resazurin-based in vitro cytotoxicity with L-6 cells. It is filed as cell-based, rat. The procedure:
Serial drug dilutions of eleven 3-fold dilution steps covering a range from 100 to 0.002 µg/mL were prepared. After 70 h of incubation, the plates were inspected under an inverted microscope to assure growth of the controls and sterile conditions. […] The plates were read with a Spectramax Gemini XS microplate fluorometer (Molecular Devices Cooperation, Sunnyvale, CA, USA) using an excitation wavelength of 536 nm and an emission wavelength of 588 nm. IC50 values were calculated by linear regression from the sigmoidal dose–inhibition curves using SoftmaxPro software Version 8.2.1 (Molecular Devices Cooperation, Sunnyvale, CA, USA). Podophyllotoxin (Sigma P4405) was used as control.

The test system of another series is P. falciparum NF54. Nature of the series: In vitro microplate assay against P. falciparum NF54 (3H-hypoxanthine incorporation). It is filed as cell-based, Plasmodium falciparum. To be noted: Plasmodium falciparum. The procedure:
Serial drug dilutions of eleven 3-fold dilution steps covering a range from 100 to 0.002 µg/mL were prepared. […] After 48 h of incubation time, 0.05 mL of ^3H-hypoxanthine (=0.5 µCi) was added to each well of the plate. The plates were incubated for a further 24 h under the same conditions. Plates were then harvested using a BetaplateTM cell harvester (Wallac, Zurich, Switzerland). Red blood cells were transferred onto a glass fiber filter and then washed with distilled aqua demin. The dried filters were inserted into a plastic foil with 10 mL of scintillation fluid and counted in a BetaplateTM liquid scintillation counter (Wallac, Zurich, Switzerland). IC50 values were calculated from sigmoidal inhibition curves by linear regression using Microsoft Excel. […] Louis, MO, USA) was used as control.

The mark [4] stands for this setting: NF54, chloroquine-sensitive strain NF54, erythrocytic stages, read-out: P.f.NF54 IC50.
[5] abbreviates: rat skeletal myofibroblasts, read-out: Cytotoxicity L-6 Cells IC50.

One may read the IC50 as the midpoint of a concentration-inhibition curve. In general, Papp refers to a coefficient for how fast a substance crosses the barrier. Lower therefore signals poor permeation.

On to `O=C(Nc1ccccc1N1CCOCC1)c1cccc(C(F)(F)F)c1Oc1ccc(F)cc1` [Compound 32, 2-(4-Fluorophenoxy)-N-[2-(morpholin-4-yl)phenyl]-3-(trifluoromethyl)benzamide], for which, in series [1], the IC50 at 48 h was more than 100 µM. The compound also came in with a Papp at 5 h, 200 µM in series [2] of 6.63 ×10⁻⁶ cm/s. The IC50 at 70 h in series [3] (rat) was found to be 161 µM. Moreover, the IC50 in the series on P. falciparum NF54 (setting [4]) came out at 3.04 µM.

As for `Cn1c(=O)c2c(ncn2C)n(C)c1=O` [caffeine, reference compound], in series [2], the Pe came to 8 ×10⁻⁶ cm/s.

Take `CN1CCN(c2ccccc2NC(=O)c2cccc(C(F)(F)F)c2Oc2ccc(F)cc2)CC1` [Compound 31, 2-(4-Fluorophenoxy)-N-[2-(4-methylpiperazin-1-yl)phenyl]-3-(trifluoromethyl)benzamide]: the IC50 at 70 h in series [3] (rat) is 120 µM. The IC50 in the series on P. falciparum NF54 (setting [4]) stood at 14 µM.

`CC(=O)Nc1ccc(Oc2c(C(=O)Nc3ccc(N4CCNCC4)cc3)cccc2C(F)(F)F)cc1` [Compound 63, 2-(4-Acetamidophenoxy)-N-[4-(piperazin-1-yl)phenyl]-3-(trifluoromethyl)benzamide] had an IC50 at 70 h in series [3] (rat) of 113 µM. In addition, in the series on P. falciparum NF54 (setting [4]), the IC50 worked out at 15.7 µM.

The compound `O=C(Nc1ccc(N2CCOCC2)cc1)c1cccc(C(F)(F)F)c1Oc1ccc(F)cc1` [Compound 33, 2-(4-Fluorophenoxy)-N-[4-(morpholin-4-yl)phenyl]-3-(trifluoromethyl)benzamide] gave a 50% inhibitory concentration (IC50) at 48 h in series [1] of 35.3 µM. The Papp at 5 h, 200 µM in series [2] came out at 3.92 ×10⁻⁶ cm/s. Further, the half-inhibitory concentration (IC50) at 70 h in series [3] (rat) is 195 µM. The IC50 in the series on P. falciparum NF54 (setting [4]) turned out to be 6.81 µM.

Turning to `O=C(Nc1ccc(N2CCNCC2)cc1)c1cccc(C(F)(F)F)c1` [Compound 66, N-[4-(Piperazin-1-yl)phenyl]-3-(trifluoromethyl)benzamide], the IC50 at 48 h in series [1] was 11.8 µM. Also, the Papp at 5 h, 200 µM in series [2] turned out to be 3.91 ×10⁻⁶ cm/s. The compound further gave an IC50 at 70 h in series [3] (rat) of 41.5 µM. Further, in the series on P. falciparum NF54 (setting [4]), the IC50 worked out at 2.6 µM.

Regarding `CN(C)c1ccccc1NC(=O)c1cccc(C(F)(F)F)c1Oc1ccc(F)cc1` [Compound 35, N-[2-(Dimethylamino)phenyl]-2-(4-fluorophenoxy)-3-(trifluoromethyl)benzamide], the IC50 at 70 h in series [3] (rat) was determined as 25.1 µM. In addition, the IC50 in the series with P. falciparum NF54 (setting [4]) worked out at 4.4 µM.

As for `NS(=O)(=O)c1cc2c(cc1Cl)NCNS2(=O)=O` [hydrochlorothiazide, reference compound], the Pe in series [2] is 0.09 ×10⁻⁶ cm/s.

Take `COc1cc([C@@H]2c3cc4c(cc3[C@H](O)[C@H]3COC(=O)[C@H]23)OCO4)cc(OC)c1OC` [POD, podophyllotoxin, reference compound]: the IC50 at 70 h in series [3] (setting [5]) came out at 0.012 µM.

In turn, `CN(C)c1ccc(NC(=O)c2cccc(C(F)(F)F)c2Oc2ccc(F)cc2)cc1` [Compound 36, N-[4-(Dimethylamino)phenyl]-2-(4-fluorophenoxy)-3-(trifluoromethyl)benzamide] yielded a half-maximal inhibitory concentration (IC50) at 48 h in series [1] of more than 100 µM. The IC50 at 70 h in series [3] (rat) was 239 µM. Moreover, the IC50 in the series with P. falciparum NF54 (setting [4]) is 7.58 µM.

Turning to `COc1cccc2c1C(=O)c1c(O)c3c(c(O)c1C2=O)C[C@@](O)(C(=O)CO)C[C@@H]3O[C@H]1C[C@H](N)[C@H](O)[C@H](C)O1` [DOX, doxorubicin, reference compound], in series [1], half-maximal inhibition (IC50 at 48 h) required 0.3 µM.

In series [2], `CC(=O)Nc1ccc(Oc2c(C(=O)Nc3ccccc3N3CCNCC3)cccc2C(F)(F)F)cc1` [Compound 54, 2-(4-Acetamidophenoxy)-N-[2-(piperazin-1-yl)phenyl]-3-(trifluoromethyl) benzamide] registered an apparent permeability (Papp) at 5 h, 200 µM of 0.26 ×10⁻⁶ cm/s. Besides, the IC50 at 70 h in series [3] (rat) is 13.2 µM. The IC50 with P. falciparum NF54 (setting [4]) came out at 11.1 µM.

On to `CC(C)(C)OC(=O)N1CCN(C(=O)c2cccc(C(F)(F)F)c2Oc2ccc(F)cc2)CC1` [Compound 50, tert-Butyl-4-[2-(4-fluorophenoxy)-3-(trifluoromethyl)benzoyl]piperazine-1-carboxylate], for which it took 35.2 µM to reach half-maximal inhibition in series [1] (IC50 at 48 h). In series [2], the Papp at 5 h, 200 µM worked out at 1.82 ×10⁻⁶ cm/s. The compound also displayed an IC50 at 70 h in series [3] (rat) of 41.4 µM. Besides, the IC50 in the series with P. falciparum NF54 (setting [4]) was found to be 51.8 µM.

`O=C(Nc1ccccc1N1CCNCC1)c1cccc(C(F)(F)F)c1Oc1ccc(F)cc1` [Compound 53, 2-(4-Fluorophenoxy)-N-[2-(piperazin-1-yl)phenyl]-3-(trifluoromethyl)benzamide] came in with an IC50 at 48 h in series [1] of 4.1 µM. For the same compound, the Papp at 5 h, 200 µM in series [2] was found to be 6.39 ×10⁻⁶ cm/s. Also, in series [3] (rat), it took 13.5 µM to reach half-maximal inhibition (IC50 at 70 h). Also, in the series with P. falciparum NF54 (setting [4]), the IC50 came out at 1.04 µM.

For `CCN(CC)CCCC(C)Nc1ccnc2cc(Cl)ccc12` (centres unmarked) [CQ, chloroquine, reference compound], the IC50 at 70 h in series [3] (setting [5]) amounted to 90.9 µM. In addition, the IC50 with P. falciparum NF54 (NF54, read-out: P.f.NF54 IC50) was determined as 0.009 µM.
